Measurements taken from patent publication US7495027B2, “3-aryl-4-hydroxyfuranone compounds and the human and animal health use thereof” (Wyeth, priority 2003, dated 2009).
In brackets after ≈: the same amount, converted by molar mass. Read-outs that look alike come from different tables or passages of the source.

What was measured:
[1] = target: E. coli Uridine-diphosphate-N-acetylmuramoyl-L-alanine: D-glutamate liease, MurD (Escherichia coli, UniProt P14900); assay: biochemical; settings: (E) E. coli enzyme
Chain of E. coli Uridine-diphosphate-N-acetylmuramoyl-L-alanine: D-glutamate liease, MurD (P14900 whole entry): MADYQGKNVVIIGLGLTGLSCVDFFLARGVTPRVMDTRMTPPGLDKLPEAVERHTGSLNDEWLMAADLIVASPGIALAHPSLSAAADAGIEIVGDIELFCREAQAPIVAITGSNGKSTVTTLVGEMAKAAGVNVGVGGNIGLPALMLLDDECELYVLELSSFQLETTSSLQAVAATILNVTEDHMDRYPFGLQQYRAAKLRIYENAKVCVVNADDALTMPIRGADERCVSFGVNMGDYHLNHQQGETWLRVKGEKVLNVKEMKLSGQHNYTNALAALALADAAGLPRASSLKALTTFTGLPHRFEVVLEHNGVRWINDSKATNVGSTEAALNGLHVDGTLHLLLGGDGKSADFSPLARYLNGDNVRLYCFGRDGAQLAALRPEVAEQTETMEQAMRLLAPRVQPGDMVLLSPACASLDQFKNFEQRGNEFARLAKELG
Description: S. aureus and E. coli Uridine-diphosphate-N-acetylmuramoyl-L-alanine: D-glutamate liease, MurD
The buffer is prepared from aqueous reagents with the following final concentrations: 83 mM Tris/HCl (pH 8.0), 50 mM MgCl2, and 2 mM ATP.
(§1) Preparation of Enzyme Solution:
(§2) Preparation of Test Compound Solutions:
(§3) All test solutions are prepared in DMSO as 10 mg/mL, then diluted with 50 mM Tris/HCl (pH 8.5) to 100 μg/mL.
(§4) Preparation of Stop Solution:
In this evaluation, the inhibitory activity of a test compound against MurD, the enzyme which catalyzes the fourth step of bacterial cell wall biosynthesis is determined.

Streptococci = assay: Minimum inhibitory concentration, microdilution broth method, streptococci; assay type: cell-based; settings: S. pneumo GC 1894; Mueller-Hinton broth with 5% horse blood, 18-22 hours at 35° C.
Description: (§5) Evaluation of the Minimum Inhibitory Concentration of Test Compounds Against A Variety of Bacterial Strains
(§6) In this evaluation the minimal inhibitory concentration (MIC) of test compounds against Gram positive and Gram negative bacteria is performed using the microdilution broth method as recommended by the National Committee for Clinical Laboratory Standards (Approved Standards M7-A5 2000). Mueller-Hinton broth is used for the enterobacteriaceae, staphylococci and enterococci. Streptococci are also tested in Mueller-Hinton broth supplemented with 5% horse blood (LHB). Test organisms include recent clinical isolates that are resistant to methicillin, penicillin and/or vancomycin. […].

[2] = target: E. coli Enopyruvyl-UPD-N-acetylglucosamine reductase, Mur B (Escherichia coli, UniProt P08373); assay: biochemical; settings: (E) E. coli enzyme; for IC50: read-out: MurB IC50 (converted)
Chain of E. coli Enopyruvyl-UPD-N-acetylglucosamine reductase, Mur B (P08373 whole entry): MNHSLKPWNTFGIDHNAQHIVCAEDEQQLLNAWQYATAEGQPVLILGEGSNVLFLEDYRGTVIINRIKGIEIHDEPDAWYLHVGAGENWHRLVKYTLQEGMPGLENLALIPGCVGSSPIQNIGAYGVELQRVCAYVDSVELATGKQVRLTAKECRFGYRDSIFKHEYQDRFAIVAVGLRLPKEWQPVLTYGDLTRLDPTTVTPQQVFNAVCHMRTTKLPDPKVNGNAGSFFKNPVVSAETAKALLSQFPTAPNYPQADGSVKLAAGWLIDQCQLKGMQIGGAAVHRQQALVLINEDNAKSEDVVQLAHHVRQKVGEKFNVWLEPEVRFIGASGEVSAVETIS
Description: S. aureus and E. coli Enopyruvyl-UPD-N-acetylglucosamine reductase, Mur B
Preparation of Tris/BME buffer:
Dilute 17.5 uL of aqueous 5 mM BME (2-mercaptoethanol) to 50 mL with 50 mM Tris/HCl (pH 8.0).
as §1
Dilute aqueous MurB stock solution (0.94 mg/mL) with 200 parts 50 mM Tris/2-BME buffer.
Synthesis of Substrate for MurB (MurA Product EP-UDP-GluNAc):
A mixture of 13 mg UDP-N-acetylglucosamine and 5.5 mg phosphoenolpyruvate are dissolved in 10 mL Tris/BME buffer forming 2 mM concentrations of each reagent in solution.
Preparation of Assay Buffer:
The assay buffer is prepared in water from reagents with the following final concentrations: 100 mM Tris/HCl (pH 8.0), 200 μM NADPH, 100 μM MurB substrate, 10 μM 2-mercaptoethanol, and 10 μM KCl.
Experiments are performed by adding 20 μL of a solution of test compound in a mixture of dimethylsulfoxide and water and 30 μL of enzyme solution to a well. After a pre-incubation period of 20 mins. at 23° C., 50 μL of Tris/BME buffer and 100 μL of assay buffer are added. […] Controls are performed using the same procedure and employing 20 μL of a blank dimethylsulfonide and solvent mixture in place of the test compound solution.
Using these values, the IC50 for each test compound is determined by linear regression analysis.

[3] = target: E. coli UDP-N-acetylglucosamine enolpyruvoyl transferase, MurA (Escherichia coli, UniProt P0A749); assay: biochemical; settings: (E) E. coli enzyme
Chain of E. coli UDP-N-acetylglucosamine enolpyruvoyl transferase, MurA (P0A749 whole entry): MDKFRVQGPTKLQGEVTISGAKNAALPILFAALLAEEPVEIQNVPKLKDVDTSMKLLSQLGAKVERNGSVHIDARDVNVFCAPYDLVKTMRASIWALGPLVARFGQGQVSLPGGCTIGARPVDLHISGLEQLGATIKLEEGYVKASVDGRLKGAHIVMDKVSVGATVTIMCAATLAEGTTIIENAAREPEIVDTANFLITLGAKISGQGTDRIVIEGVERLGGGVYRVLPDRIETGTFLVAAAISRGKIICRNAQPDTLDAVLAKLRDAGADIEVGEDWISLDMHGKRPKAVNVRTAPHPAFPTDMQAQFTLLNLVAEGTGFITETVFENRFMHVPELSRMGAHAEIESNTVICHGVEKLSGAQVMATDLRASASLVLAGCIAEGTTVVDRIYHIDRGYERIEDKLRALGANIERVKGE
Description: Evaluation of the Inhibitory Activity of Test Compounds Against Enzymes which Catalyze Bacterial Cell Wall Biosynthesis
S. aureus and E. coli UDP-N-acetylglucosamine enolpyruvoyl transferase, MurA
as §1
The enzyme solution is prepared by admixing the following: 50 mM Tris/HCl pH 8.0, […] 1 M Tris, 5 mM DTT, […] 1 M DTT, 20% Glycerol 4 ml 50% Glycerol, add water to 10 ml.
as §4
A procedure similar to that described by C. […] Experiments are performed by adding a solution of test compound (in a mixture of dimethylsulfoxide and water) and an enzyme solution to a well. After a pre-incubation period of 10 mintues at 37° C., Tris/BME buffer and assay buffer are added. A start point optical density (OD0) reading is taken at 340 nm immediately following the addition of assay buffer. After incubation for 1 hr at 37° C., the stop solution is added and the color is allowed to develop for 30 minutes.

enterococci = assay: Minimum inhibitory concentration, microdilution broth method, enterococci; assay type: cell-based; settings: Enterococcus faecalis, Mueller-Hinton broth, 18-22 hours at 35° C.
Description: as §5, §6

[4] = target: E. coli Uridine-diphosphate-N-acetvimuramoyl: L-alanine lipase, MurC (Escherichia coli, UniProt P17952); assay: Inhibitory activity against MurC (E. coli); assay type: biochemical; settings: (E) E. coli enzyme; for IC50: read-out: MurC IC50 (converted)
Chain of E. coli Uridine-diphosphate-N-acetvimuramoyl: L-alanine lipase, MurC (P17952 whole entry): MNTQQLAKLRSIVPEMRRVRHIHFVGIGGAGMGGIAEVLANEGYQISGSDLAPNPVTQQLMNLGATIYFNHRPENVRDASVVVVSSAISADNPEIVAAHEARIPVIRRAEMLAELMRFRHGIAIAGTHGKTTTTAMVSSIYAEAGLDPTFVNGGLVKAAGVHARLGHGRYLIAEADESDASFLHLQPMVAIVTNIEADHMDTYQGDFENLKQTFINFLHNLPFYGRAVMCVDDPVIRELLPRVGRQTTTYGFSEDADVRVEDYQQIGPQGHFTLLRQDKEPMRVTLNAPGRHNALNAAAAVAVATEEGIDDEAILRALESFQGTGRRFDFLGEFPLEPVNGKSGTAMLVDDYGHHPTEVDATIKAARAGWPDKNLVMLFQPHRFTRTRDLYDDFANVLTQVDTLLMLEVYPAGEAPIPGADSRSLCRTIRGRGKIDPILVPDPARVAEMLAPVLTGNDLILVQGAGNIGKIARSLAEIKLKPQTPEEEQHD
Description: S. aureus and E. coli Uridine-diphosphate-N-acetvimuramoyl: L-alanine lipase, MurC
The buffer is prepared from aqueous reagents with the following final concentrations: 83 mM Tris/HCl (pH 8.0), 50 mM MgC12, and 2 mM ATP.
as §1
A 1 mg/mL stock solution of MurC is prepared in a buffer consisting of 20 mM Tris/HCl (pH 8.5) with 2.5 μM BME. The stock solution is further diluted with the buffer to give a final enzyme concentration of 100 μg/mL for the E. coli stock solution and 70 μg/mL for the S. aureus stock solution.
as §2, §3, §4
The stop solution is prepared by stirring 1 part 4.2% ammonium molydbate in 4N HCl with 2 parts 0.045% malachite green for 30 min.
In this evaluation, the inhibitory activity of a test compound against MurC, the enzyme which catalyzes the third step of bacterial cell wall bioxynthesis is determined. Experiments are performed by adding 2.5 μl buffer, 2.5 μl 0.5M NH4SO2, 5 μl 2 μM L-Ala, 5 μl enzyme solution and 6.5 μl test compound solution to each well in a 96-well microplate. After a pre-incubation period of 10 mins. at 23° C., 3.75 μl of a 0.75 μM solution of UDP-MurNac is added to each well. Following an incubation period of 10 mins. at 37° C., 210 μl stop solution and 50 μl of a 34% w/v sodium citrate solution are added and color is allowed to develop for 10 mins. at 23° C. (Lanzetta et al., Analytical Biochemistry, 1979, 95) Optical density readings are taken at 660 nm using a Molecular Devices Spectra Max 250 with Soft Max software. Controls are performed using the same procedure and omitting the addition of UDP-MurNac.
Using these values the IC50 is determined by linear regression analysis.

staphylococci = assay: Minimum inhibitory concentration, microdilution broth method, staphylococci; assay type: cell-based; settings: Staphylococcus aureus, Mueller-Hinton broth, 18-22 hours at 35° C.
Description: as §5, §6

[5] = E. faecalis GC 2242, read-out: MIC E. faecalis GC 2242
[6] = E. faecalis GC 4555, read-out: MIC E. faecalis GC 4555
[7] = S. aureus GC 1131, read-out: MIC S. aureus GC 1131
[8] = S. aureus GC 4543, read-out: MIC S. aureus GC 4543

Structure (SMILES) | IC50 [1] [µM] | MIC (Streptococci) [µg/mL] | IC50 [2] [µM] | IC50 [3] [µM] | MIC (enterococci; [5]) [µg/mL] | MIC (enterococci; [6]) [µg/mL] | IC50 [4] [µM] | MIC (staphylococci; [7]) [µg/mL] | MIC (staphylococci; [8]) [µg/mL] | MurD IC50 [1] | MurB IC50 [2] | MurA IC50 [3] | MurC IC50 [4]
O=C1O/C(=C\c2cc(F)cc(C(F)(F)F)c2)C(O)=C1c1ccc(-c2ccccc2)c(F)c1 [Example 110] | 42.8 | 0.25 (≈ 0.563 µM) | 11.3 | 15.8 | 1 (≈ 2.25 µM) | 4 (≈ 9 µM) | 20.3 | 2 (≈ 4.5 µM) | 2 (≈ 4.5 µM) |  |  |  | 
CCCc1ccc(-c2ccc(C3=C(O)/C(=C/c4cc(F)cc(C(F)(F)F)c4)OC3=O)cc2)cc1 [Example 111] | > 53.4 | 0.25 (≈ 0.534 µM) | 23.5 | > 53.4 | 1 (≈ 2.13 µM) | 16 (≈ 34.2 µM) | > 53.4 | 32 (≈ 68.3 µM) | 16 (≈ 34.2 µM) |  |  |  | 
O=C1O/C(=C\c2cccc(C(F)(F)F)c2Cl)C(O)=C1c1ccc(-c2ccccc2)cc1 [Example 113] | > 56.5 | 0.25 (≈ 0.565 µM) | 6.77 | 9.03 | 1 (≈ 2.26 µM) | 4 (≈ 9.03 µM) | > 56.5 | 1 (≈ 2.26 µM) | 2 (≈ 4.52 µM) |  |  |  | 
O=C1O/C(=C\c2cccc(C(F)(F)F)c2Cl)C(O)=C1c1ccc(-c2ccccc2)c(F)c1 [Example 114] |  | 0.25 (≈ 0.543 µM) |  |  | 0.5 (≈ 1.09 µM) | 2 (≈ 4.34 µM) |  | 1 (≈ 2.17 µM) | 1 (≈ 2.17 µM) | 16 (E) μg/mL | 1 (E) μg/mL | 1 (E) μg/mL | 10 (E) μg/mL
CCCc1ccc(-c2ccc(C3=C(O)/C(=C/c4cccc(C(F)(F)F)c4Cl)OC3=O)cc2)cc1 [Example 115] | > 51.6 | 0.25 (≈ 0.516 µM) | 10.3 | 10.3 | 0.25 (≈ 0.516 µM) | 2 (≈ 4.12 µM) | > 51.6 | 4 (≈ 8.25 µM) | 4 (≈ 8.25 µM) |  |  |  | 
CC(C)(C)c1ccc(-c2ccc(C3=C(O)/C(=C/c4cccc(C(F)(F)F)c4Cl)OC3=O)cc2)cc1 [Example 116] | > 50.1 | < 0.125 | 8.02 | 6.01 | 4 (≈ 8.02 µM) | 4 (≈ 8.02 µM) | > 50.1 | 8 (≈ 16 µM) | 8 (≈ 16 µM) |  |  |  | 
CCOc1ccc(-c2ccc(C3=C(O)/C(=C/c4cccc(C(F)(F)F)c4Cl)OC3=O)cc2)cc1 [Example 117] | > 51.3 | 0.5 (≈ 1.03 µM) | 14.4 | 20.5 | 8 (≈ 16.4 µM) | 32 (≈ 65.7 µM) | > 51.3 | 64 (≈ 131 µM) | 32 (≈ 65.7 µM) |  |  |  | 
O=C1O/C(=C\c2cc(C(F)(F)F)ccc2F)C(O)=C1c1ccc(-c2ccccc2)cc1 [Example 118] | > 58.6 | 4 (≈ 9.38 µM) | 42.2 | 35.2 | 16 (≈ 37.5 µM) | 32 (≈ 75.1 µM) | 44.6 | 16 (≈ 37.5 µM) | 16 (≈ 37.5 µM) |  |  |  | 
O=C1O/C(=C\c2cc(C(F)(F)F)ccc2F)C(O)=C1c1ccc(-c2ccccc2)c(F)c1 [Example 119] |  | 0.5 (≈ 1.13 µM) |  |  | 2 (≈ 4.5 µM) | 2 (≈ 4.5 µM) |  | 2 (≈ 4.5 µM) | 2 (≈ 4.5 µM) | 6 (E) μg/mL | 1 (E) μg/mL | 1 (E) μg/mL | 2 (E) μg/mL
CC(C)(C)c1ccc(-c2ccc(C3=C(O)/C(=C/c4cc(C(F)(F)F)ccc4F)OC3=O)cc2)cc1 [Example 120] | 33.2 | 0.5 (≈ 1.04 µM) | 10.4 | 8.29 | 4 (≈ 8.29 µM) | 8 (≈ 16.6 µM) | 47.7 | 16 (≈ 33.2 µM) | 16 (≈ 33.2 µM) |  |  |  | 
CCOc1ccc(-c2ccc(C3=C(O)/C(=C/c4cc(C(F)(F)F)ccc4F)OC3=O)cc2)cc1 [Example 122] | > 53.1 | 1 (≈ 2.13 µM) | 29.8 | 34 | 8 (≈ 17 µM) | 32 (≈ 68 µM) | > 53.1 | 16 (≈ 34 µM) | 16 (≈ 34 µM) |  |  |  | 
CC(C)(C)c1ccc(-c2ccc(C3=C(O)/C(=C/c4ccc(Cl)c(C(F)(F)F)c4)OC3=O)cc2)cc1 [Example 123] | > 50.1 | 0.5 (≈ 1 µM) | 6.01 | 42.1 | 4 (≈ 8.02 µM) | 8 (≈ 16 µM) | > 50.1 | 16 (≈ 32.1 µM) | 16 (≈ 32.1 µM) |  |  |  | 
